From patent publication US11479550B2, “EP4 antagonist” (ONO PHARMACEUTICAL CO., LTD., priority 2017, dated 2022)

Biological target: human EP4 receptor (Homo sapiens (Human), UniProt P35408)
Assay: EP4 antagonistic activity measurement experiment using prostanoid receptor subtype expressing cells
Format: cell-based
Details: CHO cells expressing human EP4 receptor; inhibition of cAMP production by PGE2 10 nM; 30 minutes at room temperature
Experimental: CHO cells expressing human EP4 receptor subtypes were prepared according to the methods of Nishigaki et al. (Non-Patent Literature 4), and used for experiment. Cells cultured to subconfluent were detached, and suspended in an assay medium (MEM containing 1 mmol/L IBMX, 1% HSA) such that a concentration became 1×10^6 cells/mL. For reaction, PGE2 was added to the cell suspension (25 μL) in a final concentration of 10 nmol/L, either alone or as a 25-μL PGE2 solution containing the test compound. After 30 minutes of reaction at room temperature, the amount of cAMP in the cells was quantified according to the method in the descriptions of the cAMP assay kit (CISBIO).
Note here that the antagonistic effect (IC50 value) of the test compound was calculated as a value that represents an inhibition rate against a reaction with PGE2 alone at 10 nM, a concentration that produces a submaximal cAMP producing effect.

human EP4 receptor, sequence (P35408 whole entry): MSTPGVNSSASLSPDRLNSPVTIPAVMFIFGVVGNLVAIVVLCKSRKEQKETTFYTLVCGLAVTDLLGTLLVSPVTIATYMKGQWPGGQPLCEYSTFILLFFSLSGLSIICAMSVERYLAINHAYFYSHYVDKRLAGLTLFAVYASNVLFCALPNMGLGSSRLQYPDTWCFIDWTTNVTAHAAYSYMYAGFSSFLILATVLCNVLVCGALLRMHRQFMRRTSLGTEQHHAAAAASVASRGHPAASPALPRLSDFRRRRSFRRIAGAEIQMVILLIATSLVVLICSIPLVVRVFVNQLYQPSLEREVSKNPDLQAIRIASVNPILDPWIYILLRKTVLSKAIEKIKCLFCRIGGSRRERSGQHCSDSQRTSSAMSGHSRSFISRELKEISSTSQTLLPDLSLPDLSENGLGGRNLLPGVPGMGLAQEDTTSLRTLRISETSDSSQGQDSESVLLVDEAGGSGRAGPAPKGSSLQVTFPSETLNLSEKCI

Row | IC50 [nM] | SMILES
1 | 0.57 | COCCNC(=O)c1ccc2c(C3CC3)cn(C(C)C(=O)Nc3cc(C#N)ccc3CCCC(=O)O)c2c1 (single isomer, unassigned) [Example 11-25(2), 4-{4-cyano-2-[(2-{3-cyclopropyl-6-[(2-methoxyethyl)carbamoyl]-1H-indol-1-yl}propanoyl)amino]phenyl}butanoic acid]
2 | 3.3 | COCCNC(=O)c1ccc2c(C)cn(C(C)C(=O)Nc3cc(Cn4cnc(C(F)(F)F)n4)ccc3CCCC(=O)O)c2c1 (single isomer, unassigned) [Example 7-1(2), 4-(2-[(2-{6-[(2-methoxyethyl)carbamoyl]-3-methyl-1H-indol-1-yl}propanoyl)amino]-4-{[3-(trifluoromethyl)-1H-1,2,4-triazol-1-yl]methyl}phenyl)butanoic acid]
3 | 0.79 | CNC(=O)c1ccc2c(C)cn(C(C)C(=O)Nc3cc(Oc4ccccc4)ccc3CCCC(=O)O)c2c1 (stereo not drawn) [Example 13, 4-[2-({2-[3-methyl-6-(methylcarbamoyl)-1H-indol-1-yl]propanoyl}amino)-4-phenoxyphenyl]butanoic acid]
4 | 2 | Cc1cn(C(C)C(=O)Nc2cc(C#N)ccc2CCCC(=O)O)c2cc(C(=O)NC3CCCC3)ccc12 (single isomer, unassigned) [Example 11-11(2), 4-[4-cyano-2-({2-[6-(cyclopentylcarbamoyl)-3-methyl-1H-indol-1-yl]propanoyl}amino)phenyl]butanoic acid]
5 | 3.7 | COCCNC(=O)c1ccc2ccn(C(C)C(=O)Nc3cc(C#N)ccc3CCCC(=O)O)c2c1 (single isomer, unassigned) [Example 10-1(2), 4-{4-cyano-2-[(2-{6-[(2-methoxyethyl)carbamoyl]-1H-indol-1-yl}propanoyl)amino]phenyl}butanoic acid]
6 | 2.5 | CNC(=O)c1ccc2c(C)cn(C(C)C(=O)Nc3cc(Cn4cnc(C5CC5)n4)ccc3CCCC(=O)O)c2c1 (single isomer, unassigned) [Example 4-1(2), 4-{4-[(3-cyclopropyl-1H-1,2,4-triazol-1-yl)methyl]-2-({2-[3-methyl-6-(methylcarbamoyl)-1H-indol-1-yl]propanoyl}amino)phenyl}butanoic acid]
7 | 3.3 | CNC(=O)c1ccc2c(C)cn(C(C)C(=O)Nc3cc(Cn4cc(Cl)cn4)ccc3CCCC(=O)O)c2c1 (stereo not drawn) [Example 1-14, 4-{4-[(4-chloro-1H-pyrazol-1-yl)methyl]-2-({2-[3-methyl-6-(methylcarbamoyl)-1H-indol-1-yl]propanoyl}amino)phenyl}butanoic acid]
8 | 39 | CNC(=O)c1ccc2c(C)cn(C(C)C(=O)Nc3cc(CN4CCCCS4(=O)=O)ccc3CCCC(=O)O)c2c1 (stereo not drawn) [Example 2, 4-{4-[(1,1-dioxide-1,2-thiazinan-2-yl)methyl]-2-({2-[3-methyl-6-(methylcarbamoyl)-1H-indol-1-yl]propanoyl}amino)phenyl}butanoic acid]
9 | 2.7 | CNC(=O)c1ccc2c(C)cn(C(C)C(=O)Nc3cc(C#N)ccc3CCCC(=O)O)c2c1 (single isomer, unassigned) [Example 11-3(2), 4-[4-cyano-2-({2-[3-methyl-6-(methylcarbamoyl)-1H-indol-1-yl]propanoyl}amino)phenyl]butanoic acid]
10 | 2.1 | CCCNC(=O)c1ccc2c(C)cn(C(C)C(=O)Nc3cc(Cn4cc(C)cn4)ccc3CCCC(=O)O)c2c1 (single isomer, unassigned) [Example 3-5(2), 4-{2-({2-[3-methyl-6-(propylcarbamoyl)-1H-indol-1-yl]propanoyl}amino)-4-[(4-methyl-1H-pyrazol-1-yl)methyl]phenyl}butanoic acid]
11 | 6.5 | CNC(=O)c1ccc2c(C3CC3)cn(C(C)C(=O)Nc3cc(C#N)ccc3CCCC(=O)O)c2c1 (single isomer, unassigned) [Example 11-23(2), 4-[4-cyano-2-({2-[3-cyclopropyl-6-(methylcarbamoyl)-1H-indol-1-yl]propanoyl}amino)phenyl]butanoic acid]
12 | 8.6 | Cc1cnn(Cc2ccc(CCCC(=O)O)c(NC(=O)C(C)n3cc(C)c4cc(C(=O)N5CCCC5)ccc43)c2)c1 (single isomer, unassigned) [Example 8-17(2), 4-{4-[(4-methyl-1H-pyrazol-1-yl)methyl]-2-({2-[3-methyl-5-(1-pyrrolidinylcarbonyl)-1H-indol-1-yl]propanoyl}amino)phenyl}butanoic acid]
13 | 1.4 | Cc1cnn(Cc2ccc(CCCC(=O)O)c(NC(=O)C(C)n3cc(C)c4ccc(C(=O)NCC5CC5)cc43)c2)c1 (single isomer, unassigned) [Example 3-20(2), 4-{2-[(2-{6-[(cyclopropylmethyl)carbamoyl]-3-methyl-1H-indol-1-yl}propanoyl)amino]-4-[(4-methyl-1H-pyrazol-1-yl)methyl]phenyl}butanoic acid]
14 | 1.5 | CNC(=O)c1ccc2c(C)cn(C(C)C(=O)Nc3cc(Cn4cnc(C(F)(F)F)n4)ccc3CCCC(=O)O)c2c1 (single isomer, unassigned) [Example 7-3(2), 4-[2-({2-[3-methyl-6-(methylcarbamoyl)-1H-indol-1-yl]propanoyl}amino)-4-{[3-(trifluoromethyl)-1H-1,2,4-triazol-1-yl]methyl}phenyl]butanoic acid]
15 | 1.6 | Cc1cn(C(C)C(=O)Nc2cc(C#N)ccc2CCCC(=O)O)c2cc(C(=O)NC(C)(C)C)ccc12 (single isomer, unassigned) [Example 11-7(2), 4-{4-cyano-2-[(2-{3-methyl-6-[(2-methyl-2-propanyl)carbamoyl]-1H-indol-1-yl}propanoyl)amino]phenyl}butanoic acid]
16 | 1.8 | CNC(=O)c1ccc2c(C)cn(C(C)C(=O)Nc3cc(Cn4nc(C)cc4C(F)(F)F)ccc3CCCC(=O)O)c2c1 (single isomer, unassigned) [Example 2-27(4), 4-[2-({2-[3-methyl-6-(methylcarbamoyl)-1H-indol-1-yl]propanoyl}amino)-4-{[3-methyl-5-(trifluoromethyl)-1H-pyrazol-1-yl]methyl}phenyl]butanoic acid]
17 | 2.2 | COCCNC(=O)c1ccc2c(C3CC3)cn(C(C)C(=O)Nc3cc(Cn4cc(C)cn4)ccc3CCCC(=O)O)c2c1 (single isomer, unassigned) [Example 9-5(2), 4-{2-[(2-{3-cyclopropyl-6-[(2-methoxyethyl)carbamoyl]-1H-indol-1-yl}propanoyl)amino]-4-[(4-methyl-1H-pyrazol-1-yl)methyl]phenyl}butanoic acid]
18 | 6.4 | CNC(=O)c1ccc2c(C)cn(C(C)C(=O)Nc3cc(-c4nnc(C)o4)ccc3CCCC(=O)O)c2c1 (single isomer, unassigned) [Example 15-1(2), 4-[2-({2-[3-methyl-6-(methylcarbamoyl)-1H-indol-1-yl]propanoyl}amino)-4-(5-methyl-1,3,4-oxadiazol-2-yl)phenyl]butanoic acid]
19 | 2.7 | CNC(=O)c1ccc2c(C)cn(C(C)C(=O)Nc3cc(Cn4cc(C(C)C)nn4)ccc3CCCC(=O)O)c2c1 (single isomer, unassigned) [Example 6-5(1), 4-{4-[(4-isopropyl-1H-1,2,3-triazol-1-yl)methyl]-2-({2-[3-methyl-6-(methylcarbamoyl)-1H-indol-1-yl]propanoyl}amino)phenyl}butanoic acid]
20 | 3.3 | Cc1cnn(Cc2ccc(CCCC(=O)O)c(NC(=O)C(C)n3cc(C)c4cc(C(=O)NC(C)C)ccc43)c2)c1 (single isomer, unassigned) [Example 8-9(2), 4-{2-({2-[5-(isopropylcarbamoyl)-3-methyl-1H-indol-1-yl]propanoyl}amino)-4-[(4-methyl-1H-pyrazol-1-yl)methyl]phenyl}butanoic acid]
21 | 1.2 | CNC(=O)c1ccc2c(C)cn(C(C)C(=O)Nc3cc(Cn4cc(C)c(C)n4)ccc3CCCC(=O)O)c2c1 (single isomer, unassigned) [Example 2-6(2), 4-{4-[(3,4-dimethyl-1H-pyrazol-1-yl)methyl]-2-({2-[3-methyl-6-(methylcarbamoyl)-1H-indol-1-yl]propanoyl}amino)phenyl}butanoic acid]
22 | 4.9 | CNC(=O)c1ccc2c(C)cn(C(C)C(=O)Nc3cc(COc4cc(C)nc(C)c4)ccc3CCCC(=O)O)c2c1 (stereo not drawn) [Example 1-5, 4-[4-{[(2,6-dimethyl-4-pyridinyl)oxy]methyl}-2-({2-[3-methyl-6-(methylcarbamoyl)-1H-indol-1-yl]propanoyl}amino)phenyl]butanoic acid]
23 | 5.5 | CNC(=O)c1ccc2c(C)cn(C(C)C(=O)Nc3cc(Cn4cc5c(n4)CCC5)ccc3CCCC(=O)O)c2c1 (stereo not drawn) [Example 2-18, 4-[4-(5,6-dihydrocyclopenta[c]pyrazol-2(4H)-ylmethyl)-2-({2-[3-methyl-6-(methylcarbamoyl)-1H-indol-1-yl]propanoyl}amino)phenyl]butanoic acid]
24 | 360 | CC(C(=O)Nc1cc(C#N)ccc1CCCC(=O)O)c1c[nH]c2ccccc12 (stereo not drawn) [4-[4-cyano-2-[2-(indol-3-yl)propanoylamino]phenyl]butanoic acid, reference compound]
25 | 12 | COCCNC(=O)c1ccc2c(C)cn(C(C)C(=O)Nc3cc(F)ccc3CCCC(=O)O)c2c1 (single isomer, unassigned) [Example 11-30(2), 4-{4-fluoro-2-[(2-{6-[(2-methoxyethyl)carbamoyl]-3-methyl-1H-indol-1-yl}propanoyl)amino]phenyl}butanoic acid]

Row | SMILES | IC50 [nM]
26 | CCNC(=O)c1ccc2c(C)cn([C@H](C)C(=O)Nc3cc(C#N)ccc3CCCC(=O)O)c2c1 [Example 11-1(2)] | 1.3
27 | CNC(=O)c1ccc2c(C)cn(C(C)C(=O)Nc3cc(C(O)c4cnn(C)c4)ccc3CCCC(=O)O)c2c1 (stereo not drawn) [Example 18-3] | 6.2
